Results: US9738634B2, “Heterocyclic amide compound and herbicide” (SYNGENTA PARTICIPATIONS AG, priority 2013, dated 2017)

Legend:
Type in all cases: in vivo
Details in all cases: treatment dosage 320 g/ha
barnyard grass [1] = assay: Test Example 1: weedkilling efficacy, preemergent weed treatment in the submerged state; A: barnyard grass
How it was run: (§1)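 Pre-emergence application onto floodwater (4 cm, alluvial soil) on the day of sowing, dose expressed as g/ha from diluted emulsion formulation. Weeds sown with 2.5-leaf transplanted rice as crop; plants held at 25–30 °C in greenhouse and scored against assessment criteria after 3 weeks.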

bulrush [2] = assay: Test Example 1: weedkilling efficacy, preemergent weed treatment in the submerged state; B: bulrush
How it was run: as §1

oval-leafed pondweed [3] = assay: Test Example 1: weedkilling efficacy, preemergent weed treatment in the submerged state; C: oval-leafed pondweed
How it was run: as §1

transplanted rice = assay: Test Example 1: preemergent weed treatment in the submerged state, effect on crop; a: transplanted rice
How it was run: as §1

barnyard grass [4] = assay: Test Example 2: weedkilling efficacy, growth period weed treatment in the submerged state; A: barnyard grass
How it was run: (§2)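 Weeds treated at the 1-2 leaf stage by application of diluted emulsion onto floodwater (4 cm depth, alluvial soil) at specified g/ha. Grown in greenhouse at 25 to 30° C; herbicidal effect rated three weeks after treatment.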

bulrush [5] = assay: Test Example 2: weedkilling efficacy, growth period weed treatment in the submerged state; B: bulrush
How it was run: as §2

oval-leafed pondweed [6] = assay: Test Example 2: weedkilling efficacy, growth period weed treatment in the submerged state; C: oval-leafed pondweed
How it was run: as §2

crabgrass [7] = assay: Test Example 3: weedkilling efficacy through soil treatment; D: crabgrass
How it was run: (§3)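 Crop and weed responses were judged three weeks after a uniform surface spray of the water-diluted emulsion at the given g/ha rate. Seeds sat beneath about 1.5 cm of sterilized diluvial soil, and boxes stood in a greenhouse at 25 to 30° C.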

green foxtail [8] = assay: Test Example 3: weedkilling efficacy through soil treatment; E: green foxtail
How it was run: as §3

barnyard grass [9] = assay: Test Example 3: weedkilling efficacy through soil treatment; F: barnyard grass
How it was run: as §3

wild oat [10] = assay: Test Example 3: weedkilling efficacy through soil treatment; G: wild oat
How it was run: as §3

black-grass [11] = assay: Test Example 3: weedkilling efficacy through soil treatment; H: black-grass
How it was run: as §3

Italian ryegrass [12] = assay: Test Example 3: weedkilling efficacy through soil treatment; I: Italian ryegrass
How it was run: as §3

common wind-grass [13] = assay: Test Example 3: weedkilling efficacy through soil treatment; J: common wind-grass
How it was run: as §3

Indian mallow [14] = assay: Test Example 3: weedkilling efficacy through soil treatment; K: Indian mallow
How it was run: as §3

redroot pigweed [15] = assay: Test Example 3: weedkilling efficacy through soil treatment; L: redroot pigweed
How it was run: as §3

fig-leafed goosefoot [16] = assay: Test Example 3: weedkilling efficacy through soil treatment; M: fig-leafed goosefoot
How it was run: as §3

chickweed [17] = assay: Test Example 3: weedkilling efficacy through soil treatment; N: chickweed
How it was run: as §3

directly sown rice [18] = assay: Test Example 3: soil treatment, effect on crop; b: directly sown rice
How it was run: as §3

corn [19] = assay: Test Example 3: soil treatment, effect on crop; c: corn
How it was run: as §3

soybean [20] = assay: Test Example 3: soil treatment, effect on crop; d: soybean
How it was run: as §3

wheat [21] = assay: Test Example 3: soil treatment, effect on crop; e: wheat
How it was run: as §3

beet [22] = assay: Test Example 3: soil treatment, effect on crop; f: beet
How it was run: as §3

rapeseed [23] = assay: Test Example 3: soil treatment, effect on crop; g: rapeseed
How it was run: as §3

crabgrass [24] = assay: Test Example 4: weedkilling efficacy by foliar treatment; D: crabgrass
How it was run: (§4)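 Seeds are spot-sown into sterilized diluvial soil and covered with about 1.5 cm of soil. After 14 days' greenhouse growth at 25 to 30° C, plants are sprayed on stems and leaves with diluted emulsion at the stated g/ha rate, then scored at 3 weeks.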

green foxtail [25] = assay: Test Example 4: weedkilling efficacy by foliar treatment; E: green foxtail
How it was run: as §4

barnyard grass [26] = assay: Test Example 4: weedkilling efficacy by foliar treatment; F: barnyard grass
How it was run: as §4

wild oat [27] = assay: Test Example 4: weedkilling efficacy by foliar treatment; G: wild oat
How it was run: as §4

black-grass [28] = assay: Test Example 4: weedkilling efficacy by foliar treatment; H: black-grass
How it was run: as §4

Italian ryegrass [29] = assay: Test Example 4: weedkilling efficacy by foliar treatment; I: Italian ryegrass
How it was run: as §4

common wind-grass [30] = assay: Test Example 4: weedkilling efficacy by foliar treatment; J: common wind-grass
How it was run: as §4

Indian mallow [31] = assay: Test Example 4: weedkilling efficacy by foliar treatment; K: Indian mallow
How it was run: as §4

redroot pigweed [32] = assay: Test Example 4: weedkilling efficacy by foliar treatment; L: redroot pigweed
How it was run: as §4

fig-leafed goosefoot [33] = assay: Test Example 4: weedkilling efficacy by foliar treatment; M: fig-leafed goosefoot
How it was run: as §4

chickweed [34] = assay: Test Example 4: weedkilling efficacy by foliar treatment; N: chickweed
How it was run: as §4

catchweed = assay: Test Example 4: weedkilling efficacy by foliar treatment; O: catchweed
How it was run: as §4

birds-eye speedwell = assay: Test Example 4: weedkilling efficacy by foliar treatment; p: birds-eye speedwell
How it was run: as §4

directly sown rice [35] = assay: Test Example 4: foliar treatment, effect on crop; b: directly sown rice
How it was run: as §4

corn [36] = assay: Test Example 4: foliar treatment, effect on crop; c: corn
How it was run: as §4

soybean [37] = assay: Test Example 4: foliar treatment, effect on crop; d: soybean
How it was run: as §4

wheat [38] = assay: Test Example 4: foliar treatment, effect on crop; e: wheat
How it was run: as §4

beet [39] = assay: Test Example 4: foliar treatment, effect on crop; f: beet
How it was run: as §4

rapeseed [40] = assay: Test Example 4: foliar treatment, effect on crop; g: rapeseed
How it was run: as §4

CC1=C(c2ccccc2)C(=O)N(C(C)(C)C(=O)Nc2cc(F)nc(F)c2)CO1 [B-4-04]
A (barnyard grass) weedkilling efficacy grade (barnyard grass [1]): 5 (weed kill ratio 90% or more, (practically complete withering)) | B (bulrush) weedkilling efficacy grade (bulrush [2]): 5 (weed kill ratio 90% or more, (practically complete withering)) | C (oval-leafed pondweed) weedkilling efficacy grade (oval-leafed pondweed [3]): 5 (weed kill ratio 90% or more, (practically complete withering)) | a (transplanted rice) effect on crop grade (transplanted rice): 0 (weed kill ratio 5% or less (practically no effect)) | A (barnyard grass) weedkilling efficacy grade (barnyard grass [4]): 5 (weed kill ratio 90% or more, (practically complete withering)) | B (bulrush) weedkilling efficacy grade (bulrush [5]): 5 (weed kill ratio 90% or more, (practically complete withering)) | C (oval-leafed pondweed) weedkilling efficacy grade (oval-leafed pondweed [6]): 5 (weed kill ratio 90% or more, (practically complete withering)) | D (crabgrass) weedkilling efficacy grade (crabgrass [7]): 5 (weed kill ratio 90% or more, (practically complete withering)) | E (green foxtail) weedkilling efficacy grade (green foxtail [8]): 5 (weed kill ratio 90% or more, (practically complete withering)) | F (barnyard grass) weedkilling efficacy grade (barnyard grass [9]): 5 (weed kill ratio 90% or more, (practically complete withering)) | G (wild oat) weedkilling efficacy grade (wild oat [10]): 0 (weed kill ratio 5% or less (practically no effect)) | H (black-grass) weedkilling efficacy grade (black-grass [11]): 5 (weed kill ratio 90% or more, (practically complete withering)) | I (Italian ryegrass) weedkilling efficacy grade (Italian ryegrass [12]): 5 (weed kill ratio 90% or more, (practically complete withering)) | J (common wind-grass) weedkilling efficacy grade (common wind-grass [13]): 5 (weed kill ratio 90% or more, (practically complete withering)) | K (Indian mallow) weedkilling efficacy grade (Indian mallow [14]): 0 (weed kill ratio 5% or less (practically no effect)) | L (redroot pigweed) weedkilling efficacy grade (redroot pigweed [15]): 3 (weed kill ratio 40% or more, less than 70%) | M (fig-leafed goosefoot) weedkilling efficacy grade (fig-leafed goosefoot [16]): 3 (weed kill ratio 40% or more, less than 70%) | N (chickweed) weedkilling efficacy grade (chickweed [17]): 4 (weed kill ratio 70% or more, less than 90%) | b (directly sown rice) effect on crop grade (directly sown rice [18]): 3 (weed kill ratio 40% or more, less than 70%) | c (corn) effect on crop grade (corn [19]): 0 (weed kill ratio 5% or less (practically no effect)) | d (soybean) effect on crop grade (soybean [20]): 0 (weed kill ratio 5% or less (practically no effect)) | e (wheat) effect on crop grade (wheat [21]): 0 (weed kill ratio 5% or less (practically no effect)) | f (beet) effect on crop grade (beet [22]): 2 (weed kill ratio 20% or more, less than 40%) | g (rapeseed) effect on crop grade (rapeseed [23]): 4 (weed kill ratio 70% or more, less than 90%) | D (crabgrass) weedkilling efficacy grade (crabgrass [24]): 4 (weed kill ratio 70% or more, less than 90%) | E (green foxtail) weedkilling efficacy grade (green foxtail [25]): 4 (weed kill ratio 70% or more, less than 90%) | F (barnyard grass) weedkilling efficacy grade (barnyard grass [26]): 4 (weed kill ratio 70% or more, less than 90%) | G (wild oat) weedkilling efficacy grade (wild oat [27]): 2 (weed kill ratio 20% or more, less than 40%) | H (black-grass) weedkilling efficacy grade (black-grass [28]): 4 (weed kill ratio 70% or more, less than 90%) | I (Italian ryegrass) weedkilling efficacy grade (Italian ryegrass [29]): 4 (weed kill ratio 70% or more, less than 90%) | J (common wind-grass) weedkilling efficacy grade (common wind-grass [30]): 4 (weed kill ratio 70% or more, less than 90%) | K (Indian mallow) weedkilling efficacy grade (Indian mallow [31]): 5 (weed kill ratio 90% or more, (practically complete withering)) | L (redroot pigweed) weedkilling efficacy grade (redroot pigweed [32]): 3 (weed kill ratio 40% or more, less than 70%) | M (fig-leafed goosefoot) weedkilling efficacy grade (fig-leafed goosefoot [33]): 4 (weed kill ratio 70% or more, less than 90%) | N (chickweed) weedkilling efficacy grade (chickweed [34]): 3 (weed kill ratio 40% or more, less than 70%) | O (catchweed) weedkilling efficacy grade (catchweed): 4 (weed kill ratio 70% or more, less than 90%) | P (birds-eye speedwell) weedkilling efficacy grade (birds-eye speedwell): 4 (weed kill ratio 70% or more, less than 90%) | b (directly sown rice) effect on crop grade (directly sown rice [35]): 4 (weed kill ratio 70% or more, less than 90%) | c (corn) effect on crop grade (corn [36]): 1 (weed kill ratio 5% or more, less than 20%) | d (soybean) effect on crop grade (soybean [37]): 1 (weed kill ratio 5% or more, less than 20%) | e (wheat) effect on crop grade (wheat [38]): 4 (weed kill ratio 70% or more, less than 90%) | f (beet) effect on crop grade (beet [39]): 4 (weed kill ratio 70% or more, less than 90%) | g (rapeseed) effect on crop grade (rapeseed [40]): 3 (weed kill ratio 40% or more, less than 70%)
